According to ChEMBL document CHEMBL1201862, “PubChem BioAssay data set” (2004):
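Five compound concentrations were applied to cells in 96-well plates for 48 hours; endpoints were derived by simple linear interpolation of the resulting dose-response curve. GI50 marks 50% less growth.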 The source made the active and inactive calls. Rule as the data show it: active = GI50 up to about 1.1 µM and inactive = higher.

Key:
Experiment in all cases: NCI tumour cell line growth inhibition, 48 h
A549 = test system: A549
HOP-62 = test system: HOP-62
U-251 = test system: U-251
MOLT-4 = test system: MOLT-4
NCI-H522 = test system: NCI-H522
RXF 393 = test system: RXF 393
SK-MEL-5 = test system: SK-MEL-5
HL-60 = test system: HL-60
SF-268 = test system: SF-268
MDA-MB-231 = test system: MDA-MB-231
PC-3 = test system: PC-3
NCI-H226 = test system: NCI-H226
NCI-H460 = test system: NCI-H460
MDA-MB-435 = test system: MDA-MB-435
Hs-578T = test system: Hs-578T
SNB-75 = test system: SNB-75
SK-OV-3 = test system: SK-OV-3
LOX IMVI = test system: LOX IMVI
SR = test system: SR
BT-549 = test system: BT-549

Structure (SMILES)	GI50 (A549)	GI50 (HOP-62)	GI50 (U-251)	GI50 (MOLT-4)	GI50 (NCI-H522)	GI50 (RXF 393)	GI50 (SK-MEL-5)	GI50 (HL-60)	GI50 (SF-268)	GI50 (MDA-MB-231)	GI50 (PC-3)	GI50 (NCI-H226)	GI50 (NCI-H460)	GI50 (MDA-MB-435)	GI50 (Hs-578T)	GI50 (SNB-75)	GI50 (SK-OV-3)	GI50 (LOX IMVI)	GI50 (SR)	GI50 (BT-549)
Cc1c(C(=O)O)sc2nc[nH]c(=O)c12	> 100 µM (inactive)	> 100 µM (inactive)	> 100 µM (inactive)	> 100 µM (inactive)	> 100 µM (inactive)	> 100 µM (inactive)	> 100 µM (inactive)	> 100 µM (inactive)	> 100 µM (inactive)	> 100 µM (inactive)	> 100 µM (inactive)	25.1 µM (inactive)	> 100 µM (inactive)	> 100 µM (inactive)	22.6 µM (inactive)	49.8 µM (inactive)	> 100 µM (inactive)	> 100 µM (inactive)		
O=C1CSC(c2cccc(Cl)c2)N1c1c(O)c(Cl)cc(Br)c1Cl (stereo not given)	53.3 µM (inactive)	> 100 µM (inactive)	25.5 µM (inactive)	23.6 µM (inactive)		16.7 µM (inactive)	27.3 µM (inactive)	25.8 µM (inactive)	57.8 µM (inactive)	14 µM (inactive)	36.1 µM (inactive)	30.2 µM (inactive)	> 100 µM (inactive)	17.1 µM (inactive)	29.8 µM (inactive)	29.4 µM (inactive)	> 100 µM (inactive)	16.3 µM (inactive)	24.8 µM (inactive)	
OC(CC(O)(C(F)(F)F)C(F)(F)F)c1ccc(C(O)CC(O)(C(F)(F)F)C(F)(F)F)cc1 (stereo not given)	14.4 µM (inactive)	17 µM (inactive)	16.4 µM (inactive)	16.3 µM (inactive)	18.3 µM (inactive)	15 µM (inactive)	13.9 µM (inactive)	17.1 µM (inactive)	14.9 µM (inactive)	14.3 µM (inactive)	18.2 µM (inactive)		14.7 µM (inactive)	18.2 µM (inactive)	22 µM (inactive)	17.5 µM (inactive)	17 µM (inactive)	16.7 µM (inactive)	17.1 µM (inactive)	
C(CCCCc1nnc(N2CCCCC2)o1)CCCc1nnc(N2CCCCC2)o1	> 100 µM (inactive)	> 100 µM (inactive)	> 100 µM (inactive)	> 100 µM (inactive)	> 100 µM (inactive)	> 100 µM (inactive)	> 100 µM (inactive)	> 100 µM (inactive)	> 100 µM (inactive)	> 100 µM (inactive)	> 100 µM (inactive)	> 100 µM (inactive)	> 100 µM (inactive)	> 100 µM (inactive)		> 100 µM (inactive)	> 100 µM (inactive)	> 100 µM (inactive)		> 100 µM (inactive)
CCN(CC)CC1CCCCN1CC(=O)N1c2ccccc2NC(=O)c2ccccc21 (stereo not given)	> 100 µM (inactive)	> 100 µM (inactive)	> 100 µM (inactive)	> 100 µM (inactive)	> 100 µM (inactive)	> 100 µM (inactive)	> 100 µM (inactive)	> 100 µM (inactive)	> 100 µM (inactive)	> 100 µM (inactive)	> 100 µM (inactive)	> 100 µM (inactive)	> 100 µM (inactive)	> 100 µM (inactive)	> 100 µM (inactive)	13.9 µM (inactive)	> 100 µM (inactive)	> 100 µM (inactive)	> 100 µM (inactive)	
COc1ccc(/C=C2\CSC/C(=C\c3ccc(OC)c(OC)c3OC)C2=O)c(OC)c1OC	> 100 µM (inactive)	60.8 µM (inactive)	39.8 µM (inactive)	> 10 µM (inactive)		15.6 µM (inactive)	28.3 µM (inactive)	29.2 µM (inactive)	41.6 µM (inactive)	66.4 µM (inactive)	47.3 µM (inactive)	> 100 µM (inactive)	34.5 µM (inactive)				> 100 µM (inactive)	23.4 µM (inactive)	26.9 µM (inactive)	35.5 µM (inactive)
COc1ccc(-c2nc(SCC(=O)N/N=C/c3ccc(N(C)C)cc3)[nH]c2-c2ccc(OC)cc2)cc1	17.6 µM (inactive)	> 100 µM (inactive)	36.9 µM (inactive)		31.3 µM (inactive)	33.4 µM (inactive)	26.8 µM (inactive)	11.5 µM (inactive)	> 100 µM (inactive)	> 100 µM (inactive)	44.8 µM (inactive)		32.7 µM (inactive)	74.8 µM (inactive)		62.8 µM (inactive)	> 100 µM (inactive)	92.9 µM (inactive)		> 100 µM (inactive)
CC(CO)C1=CC(C#CCOCc2ccccc2)N(C(=O)Oc2ccccc2)c2ccccc21 (stereo not given)	9.98 µM (inactive)	29.3 µM (inactive)	34.5 µM (inactive)	4.63 µM (inactive)	7.73 µM (inactive)	3.33 µM (inactive)	21.4 µM (inactive)	26.3 µM (inactive)	24.9 µM (inactive)	39.6 µM (inactive)	14.4 µM (inactive)	40.7 µM (inactive)	18 µM (inactive)	15.5 µM (inactive)	14.3 µM (inactive)	22.9 µM (inactive)	34.9 µM (inactive)	33.5 µM (inactive)	9.53 µM (inactive)	
CC(C)(CCCCC(C)(C)[N+](C)(C)C)[N+](C)(C)C	> 100 µM (inactive)	> 100 µM (inactive)	> 100 µM (inactive)	> 100 µM (inactive)	> 100 µM (inactive)		> 100 µM (inactive)	> 100 µM (inactive)	> 100 µM (inactive)	> 100 µM (inactive)	> 100 µM (inactive)		> 100 µM (inactive)	> 100 µM (inactive)	> 100 µM (inactive)	> 100 µM (inactive)	> 100 µM (inactive)		> 100 µM (inactive)	
COC(=O)NCCc1n[nH]c2c1C(=O)C=C(OC)C2=O	46.7 µM (inactive)	20.9 µM (inactive)	16.7 µM (inactive)	19.9 µM (inactive)	23.9 µM (inactive)	17.6 µM (inactive)	15.5 µM (inactive)	16.6 µM (inactive)	18.5 µM (inactive)	16.1 µM (inactive)	34.9 µM (inactive)	23 µM (inactive)	> 100 µM (inactive)	14.6 µM (inactive)	34.3 µM (inactive)	19.2 µM (inactive)	> 100 µM (inactive)	17.8 µM (inactive)	15 µM (inactive)	
O=C1N[C@H]2[C@H](O)[C@H](O)[C@@H](O)[C@H](O)[C@@H]2c2cc3c(c(O)c21)OCO3 [PANCRATISTATIN]	0.0893 µM (active)	0.0449 µM (active)	0.0339 µM (active)	0.0309 µM (active)	0.0326 µM (active)	0.0434 µM (active)	0.0272 µM (active)	0.0364 µM (active)	0.0391 µM (active)	0.0344 µM (active)		0.0375 µM (active)	0.0457 µM (active)	0.0372 µM (active)		0.0301 µM (active)	0.0483 µM (active)	0.0307 µM (active)	0.106 µM (active)	0.0493 µM (active)
